In ChEMBL document CHEMBL1132853, “Design and synthesis of highly potent fumagillin analogues from homology modeling for a human MetAP-2” (Bioorg Med Chem Lett, 2000):
≈ marks a conversion by molar mass, not a printed value.

Tests used:
CPAE = assay: Tested in vitro for its ability to inhibit cell proliferation of calf pulmonary artery endothelial cells measured […] by SRB method; format: functional, cell-based, Bos taurus
EL4 = assay: Tested in vitro for its ability to inhibit cell proliferation of lymphoma EL-4 cells measured […] by MTT method; format: functional, cell-based, Mus musculus
P388 = assay: Tested in vitro for its ability to inhibit cell proliferation of murine leukemia P388D1 cells measured […] by MTT method; format: functional, cell-based; details: Mus musculus
[1] = Bos taurus, CPAE, Artery, read-out: IC50
[2] = Mus musculus, EL4, read-out: IC50

Structure (SMILES) | IC50 (P388) | IC50 (CPAE; [1]) | IC50 (EL4; [2]) | IC50 (CPAE; cpae) | IC50 (EL4; el4)
COc1ccc(COC(=O)O[C@@H]2CC[C@]3(CO3)[C@@H]([C@@]3(C)O[C@@H]3CC=C(C)C)[C@@H]2OC)cc1 | – | 18 ng/mL (≈ 40.3 nM) | 42 ng/mL (≈ 94.1 nM) | – | –
COc1ccc(CCOC(=O)O[C@@H]2CC[C@]3(CO3)[C@@H]([C@@]3(C)O[C@@H]3CC=C(C)C)[C@@H]2OC)cc1 | – | 2.3 ng/mL (≈ 4.99 nM) | 153 ng/mL (≈ 332 nM) | – | –
COc1ccc(/C=C\C(=O)O[C@@H]2CC[C@]3(CO3)[C@@H]([C@@]3(C)O[C@@H]3CC=C(C)C)[C@@H]2OC)cc1 | – | 24 ng/mL (≈ 54.2 nM) | 12 ng/mL (≈ 27.1 nM) | – | –
CO[C@@H]1[C@H](O)CC[C@]2(CO2)[C@H]1[C@@]1(C)O[C@@H]1CC=C(C)C | > 10 ng/mL | 15 ng/mL (≈ 53.1 nM) | 5.16 ng/mL (≈ 18.3 nM) | – | –
COc1cc(CCC(=O)O[C@@H]2CC[C@]3(CO3)[C@@H]([C@@]3(C)O[C@@H]3CC=C(C)C)[C@@H]2OC)cc(OC)c1OC | – | 44 ng/mL (≈ 87.2 nM) | 36 ng/mL (≈ 71.3 nM) | – | –
COc1cc(/C=C/C(=O)O[C@@H]2CC[C@]3(CO3)[C@@H]([C@@]3(C)O[C@@H]3CC=C(C)C)[C@@H]2OC)cc(OC)c1OC | > 1 ng/mL | – | – | 0.00003 ng/mL (≈ 5.97e-05 nM) | 0.00015 ng/mL (≈ 0.000298 nM)
CO[C@@H]1[C@H](OC(=O)/C=C/c2ccccc2)CC[C@]2(CO2)[C@H]1[C@@]1(C)O[C@@H]1CC=C(C)C | > 1 ng/mL | 0.046 ng/mL (≈ 0.112 nM) | 0.05 ng/mL (≈ 0.121 nM) | – | –
CO[C@@H]1[C@H](OC(=S)SCc2ccccc2)CC[C@]2(CO2)[C@H]1[C@@]1(C)O[C@@H]1CC=C(C)C | – | 42 ng/mL (≈ 93.6 nM) | 14 ng/mL (≈ 31.2 nM) | – | –
COc1ccc(CCCC(=O)O[C@@H]2CC[C@]3(CO3)[C@@H]([C@@]3(C)O[C@@H]3CC=C(C)C)[C@@H]2OC)cc1 | – | 125 ng/mL (≈ 273 nM) | 83 ng/mL (≈ 181 nM) | – | –
C/C=C/C=C/C(=O)O[C@@H]1CC[C@]2(CO2)[C@@H]([C@@]2(C)O[C@@H]2CC=C(C)C)[C@@H]1OC | > 1 ng/mL | 12 ng/mL (≈ 31.9 nM) | 5.05 ng/mL (≈ 13.4 nM) | – | –
CO[C@@H]1[C@H](OC(=O)/C=C/C=C/C=C/C=C/C(=O)O)CC[C@]2(CO2)[C@H]1[C@@]1(C)O[C@@H]1CC=C(C)C [FUMAGILLIN] | > 1 ng/mL | 0.37 ng/mL (≈ 0.807 nM) | 0.42 ng/mL (≈ 0.916 nM) | – | –
CO[C@@H]1[C@H](OC(=O)NC(=O)CCl)CC[C@]2(CO2)[C@H]1[C@@]1(C)O[C@@H]1CC=C(C)C [O-CHLOROACETYLCARBAMOYLFUMAGILLOL] | > 10 ng/mL | 0.04 ng/mL (≈ 0.0995 nM) | 0.03 ng/mL (≈ 0.0746 nM) | – | –

The next lines start with results.

IC50 (P388) | Structure (SMILES) | IC50 (CPAE; [1]) | IC50 (EL4; [2]) | IC50 (CPAE; cpae) | IC50 (EL4; el4)
> 1 ng/mL | COc1ccc(CCNC(=O)O[C@@H]2CC[C@]3(CO3)[C@@H]([C@@]3(C)O[C@@H]3CC=C(C)C)[C@@H]2OC)cc1OC | 0.044 ng/mL (≈ 0.0899 nM) | 0.042 ng/mL (≈ 0.0858 nM) | – | –
> 1 ng/mL | CO[C@@H]1[C@H](OC(=O)NCc2ccc(C(F)(F)F)cc2)CC[C@]2(CO2)[C@H]1[C@@]1(C)O[C@@H]1CC=C(C)C | 0.0054 ng/mL (≈ 0.0112 nM) | 0.014 ng/mL (≈ 0.029 nM) | – | –
> 1 ng/mL | CO[C@@H]1[C@H](OC(=O)OCc2ccc([N+](=O)[O-])cc2)CC[C@]2(CO2)[C@H]1[C@@]1(C)O[C@@H]1CC=C(C)C | 0.11 ng/mL (≈ 0.238 nM) | 2.47 ng/mL (≈ 5.35 nM) | – | –
> 1 ng/mL | COc1ccc(CNC(=O)O[C@@H]2CC[C@]3(CO3)[C@@H]([C@@]3(C)O[C@@H]3CC=C(C)C)[C@@H]2OC)cc1 | 0.044 ng/mL (≈ 0.0988 nM) | 0.042 ng/mL (≈ 0.0943 nM) | – | –
> 1 ng/mL | CO[C@@H]1[C@H](OC(=O)NCc2ccccc2)CC[C@]2(CO2)[C@H]1[C@@]1(C)O[C@@H]1CC=C(C)C | 0.07 ng/mL (≈ 0.168 nM) | 0.01 ng/mL (≈ 0.0241 nM) | – | –
> 1 ng/mL | COc1ccc(/C=C/C(=O)O[C@@H]2CC[C@]3(CO3)[C@@H]([C@@]3(C)O[C@@H]3CC=C(C)C)[C@@H]2OC)cc1 | – | – | 0.00006 ng/mL (≈ 0.000136 nM) | 0.00019 ng/mL (≈ 0.000429 nM)
